Where two headings read alike, the source gives them in different places.
Legend:
A549 = assay: Viability assay (CellTiter 96 Aqueous1), cell growth inhibition; type: cell-based; conditions: Homo sapiens; A549 (lung carcinoma), viability 72 hours after addition
Experimental: (§1) Cell lines and reagents. The tumor cell lines used for the in vitro evaluation of cell growth inhibition by dihydroxypirolidine derivatives were U87 (glioblastoma), PC3 (prostate cancer), A549 (lung carcinoma), MDA-MB231, MCF7, BT474, and SKBR3 (breast cancer). Cells were grown in 10-cm culture dishes with McCoy medium containing 10% fetal calf serum (FCS) and antibiotics at 37°C and 5% CO2. The dihydroxypirolidine derivatives CB161, CB181, and CB183 were weighted and dissolved in DMSO to prepare a stock solution concentrated 100 mM.
(§2) Viability assays. For the viability assays, 5 x 10^4 cells/well were plated in 200 µl medium in 96 well plates. 48 hours later, the dihydroxypirolidine derivatives were added to the wells at concentrations ranging between 10^-2 and 400 µM, such that the vehicle DMSO never exceeded 0.4%. Each drug concentration was tested in duplicate. Viability was determined 72 hours later using CellTiter 96 Aqueous1 (Promega) according to the manufacturer's instructions. Incubation times with CellTiter96 Aqueous1 ranged between 2 and 4 hours. Plates were read with a spectrophotometer (Labsystems iEMS Reader MF) at 490 nm wave length. IC50s were estimated using GraphPad Prism4.

BT474 = assay: as above; type: cell-based; conditions: Homo sapiens, BT-474; BT474 (breast cancer), viability 72 hours after addition
Experimental: as §1, §2

MCF7 = assay: as above; type: cell-based; conditions: Homo sapiens; MCF7 (breast cancer), viability 72 hours after addition
Experimental: as §1, §2

MDA-MB-231 = assay: as above; type: cell-based; conditions: Homo sapiens; MDA-MB-231 (breast cancer), viability 72 hours after addition
Experimental: as §1, §2

PC3 = assay: as above; type: cell-based; conditions: Homo sapiens, PC-3; PC3 (prostate cancer), viability 72 hours after addition
Experimental: as §1, §2

SKBR3 = assay: as above; type: cell-based; conditions: Homo sapiens, SK-BR-3; SKBR3 (breast cancer), viability 72 hours after addition
Experimental: as §1, §2

U87 = assay: as above; type: cell-based; conditions: Homo sapiens, U-87 MG
Experimental: as §1, §2

[1] = test system: seven established human tumor cell lines; assay: Viability assay, panel of seven tumor cell lines; type: cell-based; conditions: all the cell lines tested
Experimental: as §1, §2

human glioblastoma cells = conditions: S. Favre et al., Heterocycles 2006; cited from earlier work
glioblastoma cell growth = conditions: H. Fiaux et al., J. Med. Chem. 2005; cited from earlier work
[2] = refers to Figure 8 (U87 glioblastoma), read-out: IC50s (growth inhibition effects)

OC[C@H](NC[C@H]1NC[C@H](O)[C@@H]1O)c1ccc(-c2ccc(C(F)(F)F)cc2)cc1 [CB183, (2R,3R,4S)-2-{{{(1R)-2-hydroxy-1-[4'-(trifluoromethyl)-[1,1'-biphenyl]-4-1]ethyl}amino}methyl}pyrrolidine-3,4-diol]
IC50 (A549): 152 µM | IC50 (BT474): 93.3 µM | IC50 (MCF7): 76.7 µM | IC50 (MDA-MB-231): 65.8 µM | IC50 (PC3): 132 µM | IC50 (SKBR3): 48.3 µM | IC50 (U87; U87 (glioblastoma), viability 72 hours after addition, read-out: IC50): 80 µM | potent cytotoxic activity for concentrations [1]: < 200 µM

O=C(NC[C@H](NC[C@H]1NC[C@H](O)[C@@H]1O)c1ccccc1)c1cccc(Br)c1 [N-[(2R)-2-({[(2R,3R,4S)-3,4-dihydroxypyrrolidin-2-yl]methyl}amino)-2-phenylethyl]-3-bromobenz-amide]
inhibition of human glioblastoma cells (human glioblastoma cells): convincing inhibition

O[C@H]1[C@H]2[C@H](O)CCCN2C[C@H]1O [swainsonine]
inhibitory effect on glioblastoma cell growth (glioblastoma cell growth): only little inhibitory effect

OC[C@H](NC[C@H]1NC[C@H](O)[C@@H]1O)c1ccc(-c2ccccc2)cc1 [CB161]
IC50 (U87; [2]): > 200 µM

C=CCOc1ccc([C@H](CO)NC[C@H]2NC[C@H](O)[C@@H]2O)cc1 [CB181, (2R,3R,4S)-2{{{(1R)-2-hydroxy-1-[4-(prop-2-enyloxy)phenyl]ethyl}amino}methyl} pyrrolidine-3,4-diol]
IC50 (U87; [2]): > 200 µM
